Experimental data: patent US20070071780A1, “Personal care composition comprising a perfume booster accord” (priority 2005, published 2007)

Tested on: human nose
Test: Odor intensity evaluation by panelists and Human Recognition Slope Factor (HRSF) calculation in DPG
Conditions: for HRSF (Human Recognition Slope Factor = Ii/xi) / Ii (maximum intensity in a given media) / xi (lowest concentration to reach maximum intensity): low hydrophobic media (DPG); for Odor Intensity (I): average of 25 panelists, in DPG
Source text: The Human Recognition Slope Factor (HRSF) is a tool in choosing the most efficient high odor value materials to create perfume booster accords. […] The higher the number, the more efficient the material will be.
The HRSF identifies the behavior of perfume materials through the relevant range of concentrations in a given product. The calculation process of the HRSF also defines the concentration where the high odor value material reaches its maximum intensity in a given media.
The HRSF is determined by the following calculations: HRSF=Ii/xi wherein: HRSF=Human Recognition Slope Factor; Ii is the maximum intensity that a high odor value material delivers in a given media; and xi is the lowest concentration of the high odor value material to reach maximum intensity.
The value of Ii and xi are calculated using the following two equations. The first equation (I) describes the intensity of a high odor value material across a broad range of concentrations. The second equation (VI) allows one to find the maximum concentration when both mathematical equations reach the same intensity value. I=a/(1+(x/c)ˆb) (I) wherein: I is the Intensity of the high odor value material; x is the concentration of the material; and a, b, and c are experimental constants for each high odor value material.
The experimental constants of “a, b, and c” are generated by performing a non linear regression analysis using commercially available software. One software package useful in performing the non linear regression analysis is GraphPad Prism 4 for Windows, available from GraphPad Software, Inc., San Diego Calif.
Odor evaluations of each raw material are conducted among at least 25 people. Each material is diluted to a given concentration, and panelists are requested to grade the smell using a numeric scale (Low: 0-15, Slight: 16-30, Moderate: 31-50, Strong: 51-70, Very Strong: 71-up). Internal controls containing Benzyl salicylate, Citronellol and Ethyl 2 Methyl Butyrate are used to define the standard intensity for each range.
An illustration of how the non linear regression analysis works is described below. In the following example, the material Alpha Damascone was used for illustrative purposes. The experimental data from 25 panelists indicate that the average value for each observation of Alpha Damascone in DPG is as follows:
The goal of the software package is to minimize the sum of the squares of the vertical distances of the points from the curve. The software prompts the user to perform the following steps to run an iterative process that allows one to find the values of a, b, and c. The R^2 factor (shown below) will indicate if the objective of minimizing the sum of the squares of the vertical distances of the points from the curve was achieved. The closer the R^2 factor is to 1.0, the better the “best-fit values” will be.
The software generates the curve defined by the initial values, calculates the sum-of-squares (the sum of the squares of the vertical distances of the points from the curve), adjusts the variables to make the curve come closer to the data points, adjusts the variables again so that the curve comes even closer to the points, keeps adjusting the variables until the adjustments make virtually no difference in the sum-of-squares and reports the best-fit results.
The “best fit values” are the “a, b, and c” values used in all the equations described herein. Once the “a, b, and c” values are determined, proceed with the following equations.
By definition, the curve that describes that Intensity and its differential curve will meet at the point where a given material delivers the maximum intensity with the minimum mass. Therefore, the next step is to calculate the intersection point by solving the following equation: (ab(xi/c)ˆb)/(x((x/c)ˆb+1)ˆ2=a/(1+(x/c)ˆb) (V)
Therefore, (ab(xi/c)ˆb)/(xi((xi/c)ˆb+1)ˆ2−a/(1+(xi/c)ˆb)=0 (VI) […]

CC1=CCC(C=CC(C)(C)C(C)O)C1(C)C (stereo not shown) [Polysantol, 3,3-Dimethyl-5-(2,2,3-trimethyl-3-cycloenten-1-yl)-4-penten-2-ol]
HRSF (Human Recognition Slope Factor = Ii/xi): 690
Ii (maximum intensity in a given media): 73.16
xi (lowest concentration to reach maximum intensity): 0.106

CC(=O)C=CC1=C(C)CCCC1(C)C [Ionone Beta, 4-(2,6,6-Trimethyl-1-cyclohexenyl)-3-butenone-2]
HRSF (Human Recognition Slope Factor = Ii/xi): 15,451
Ii (maximum intensity in a given media): 47.90
xi (lowest concentration to reach maximum intensity): 0.0031

Cc1ccc2c(c1)OCC(=O)CO2 [Calone 1951, Methyl-3,4-dioxy(cylcoacetonyl) benzene]
HRSF (Human Recognition Slope Factor = Ii/xi): 1,030
Ii (maximum intensity in a given media): 71.88
xi (lowest concentration to reach maximum intensity): 0.0698

Hexahydro-4,7methano-1H-inden-5(or 6)-yl propionate [Frutene]
HRSF (Human Recognition Slope Factor = Ii/xi): 738
Ii (maximum intensity in a given media): 80.35
xi (lowest concentration to reach maximum intensity): 0.1089

CCCCCCCCCCCC=O [Lauric Ald]
HRSF (Human Recognition Slope Factor = Ii/xi): 1,409
Ii (maximum intensity in a given media): 67.33
xi (lowest concentration to reach maximum intensity): 0.0478

CCC(C)(O)CCCC(C)C (stereo not shown) [Tetra Hydro linalool, Tetra Hydro 3,7-Dimethyl-1,6-octadien-3-ol]
HRSF (Human Recognition Slope Factor = Ii/xi): 838
Ii (maximum intensity in a given media): 53.69
xi (lowest concentration to reach maximum intensity): 0.0641

C/C=C\C(=O)C1C(C)=CCCC1(C)C (stereo not drawn) [Alpha Damascone]
Odor Intensity (I) (Concentration (X) 0.0004): 5
Odor Intensity (I) (Concentration (X) 0.0022): 15
Odor Intensity (I) (Concentration (X) 0.0032): 25
Odor Intensity (I) (Concentration (X) 0.0044): 35
Odor Intensity (I) (Concentration (X) 0.0072): 50
Odor Intensity (I) (Concentration (X) 0.0092): 55
Odor Intensity (I) (Concentration (X) 0.0170): 60
HRSF (Human Recognition Slope Factor = Ii/xi): 2,034
Ii (maximum intensity in a given media): 62.86
xi (lowest concentration to reach maximum intensity): 0.0309

CC(=O)OC1CC2CC1C1CC=CC21 (stereo not shown) [Tricyclo decenyl acetate]
HRSF (Human Recognition Slope Factor = Ii/xi): 1,379
Ii (maximum intensity in a given media): 46.74
xi (lowest concentration to reach maximum intensity): 0.0339

CC1(C)CCC[C@]2(C)[C@H]3CCO[C@]3(C)CC[C@@H]12 [Ambroxan, (3aR-(3aalpha,5abeta,9aalpha,9bbeta))-dodecahydro-3a,6,6,9a-tetramethyl naphtha(2,1-b)furan]
HRSF (Human Recognition Slope Factor = Ii/xi): 7,675
Ii (maximum intensity in a given media): 68.31
xi (lowest concentration to reach maximum intensity): 0.0089

CC(=O)/C=C/C1C(C)=CCCC1(C)C (stereo not shown) [Ionone Apha, 3-buten-2-one, 4-(2,6,6-trimethyl-2-cyclohexen-1-yl), (E)]
HRSF (Human Recognition Slope Factor = Ii/xi): 1,157
Ii (maximum intensity in a given media): 91.99
xi (lowest concentration to reach maximum intensity): 0.0795

CCCCCCCCCC=O [Decyl Aldehyde]
HRSF (Human Recognition Slope Factor = Ii/xi): 1,098
Ii (maximum intensity in a given media): 54.35
xi (lowest concentration to reach maximum intensity): 0.0495

CC(=O)C(C)=CC1C(C)=CCCC1(C)C (stereo not shown) [3-buten-2-one, 3-methyl-4-(2,6,6-trimethyl-2-cyclohexen-1-yl)]
HRSF (Human Recognition Slope Factor = Ii/xi): 1,204
Ii (maximum intensity in a given media): 85.50
xi (lowest concentration to reach maximum intensity): 0.071

CCOC(=O)CC1(C)OCCO1 [Fructone, ethyl methyl dioxolane acetate]
HRSF (Human Recognition Slope Factor = Ii/xi): 2,243
Ii (maximum intensity in a given media): 62.36
xi (lowest concentration to reach maximum intensity): 0.0278

CC(=O)OC1CCCCC1C(C)(C)C (stereo not shown) [Verdox, ortho tertiary butyl cyclohexanyl acetate]
HRSF (Human Recognition Slope Factor = Ii/xi): 998
Ii (maximum intensity in a given media): 51.91
xi (lowest concentration to reach maximum intensity): 0.052

CC(=O)OC(C)c1ccccc1 (stereo not shown) [Methyl Phenyl Carbinyl Acetate]
HRSF (Human Recognition Slope Factor = Ii/xi): 756
Ii (maximum intensity in a given media): 50.63
xi (lowest concentration to reach maximum intensity): 0.067

Methyl Cedrylone
HRSF (Human Recognition Slope Factor = Ii/xi): 811
Ii (maximum intensity in a given media): 84.44
xi (lowest concentration to reach maximum intensity): 0.1041
